Assay results reported in patent US7087717B2, “Sp110, a polypeptide component of the nuclear body” (The General Hospital Corporation, priority 2000, dated 2006).

Tests used:
[1] = test system: human coronary artery smooth muscle cells (hCASMCs) and human umbilical vein endothelial cells (HUVECs); experiment: Sp110 mRNA expression after cytokine exposure; assay type: cell-based; conditions: 200 u/ml
Experimental: Sp110 expression was also examined in human coronary artery smooth muscle cells (hCASMCs) and human umbilical vein endothelial, cells (HUVECs) following exposure to IFNα (200 u/ml). Expression of Sp110 mRNA was induced within 4 hours and reached a maximum level between 8 and 24 hours.

[2] = test system: NB4 cells; experiment: Sp110 mRNA level by RNA blot after cellular differentiation; assay type: cell-based, human; conditions: 1 μM, 48 hours
Experimental: To investigate the expression of Sp110 in cells of the monocyte/granulocyte lineage, RNA was prepared from the myeloid precursor cell lines HL60 and NB4 (HL60 cells are available from the American Type Culture Collection, Manassas, Va.). […] RNA was fractionated in formaldehyde-agarose gels (5 μg/lane) and equal loading of RNA was confirmed by staining 28S and 18S ribosomal RNA with ethidium bromide. […] Membranes were washed and analyzed by autoradiography. […] To examine the effect of cellular differentiation on Sp110 mRNA, NB4 cells were treated for 48 hours with all trans retinoic acid (ATRA) (1 μM).

| Compound | time to induction of Sp110 mRNA expression [1] | level of Sp110 mRNA [2] |
| --- | --- | --- |
| IFNα | ≤ 4 h |  |
| CC1=C(/C=C/C(C)=C/C=C/C(C)=C/C(=O)O)C(C)(C)CCC1 [ATRA, all trans retinoic acid] |  | increased |
